Results from PubChem BioAssay (NCI).
“And” between values parts separate entries of the source, which are not always exact repeats. Identical values can stand only once.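 Cells were grown in 96-well plates and exposed to each compound for 48 hours at five concentrations; endpoints were interpolated linearly between bracketing concentrations, or set to the highest concentration if not reached. The concentration for 50% growth inhibition is given as GI50. Definition used: TGI = concentration required for complete inhibition of growth.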

How the values were obtained:
Assay in all cases: NCI anticancer screen, dose series, 48 h
IGROV1 ovarian = tested on: IGROV1 ovarian
NCI-H460 lung = tested on: NCI-H460 lung
SK-MEL-2 melanoma = tested on: SK-MEL-2 melanoma
U251 CNS = tested on: U251 CNS
LOX IMVI melanoma = tested on: LOX IMVI melanoma
M14 melanoma = tested on: M14 melanoma
ACHN renal = tested on: ACHN renal
SF-539 CNS = tested on: SF-539 CNS
HCC-2998 colon = tested on: HCC-2998 colon
HCT-15 colon = tested on: HCT-15 colon
NCI/ADR-RES ovarian = tested on: NCI/ADR-RES ovarian
MDA-MB-435 = tested on: MDA-MB-435
K-562 leukemia = tested on: K-562 leukemia
SN12C renal = tested on: SN12C renal
SF-268 CNS = tested on: SF-268 CNS
MDA-MB-231 breast = tested on: MDA-MB-231 breast
COLO 205 colon = tested on: COLO 205 colon
PC-3 prostate = tested on: PC-3 prostate
SNB-75 CNS = tested on: SNB-75 CNS
DU-145 prostate = tested on: DU-145 prostate
HS 578T breast = tested on: HS 578T breast
SK-MEL-28 melanoma = tested on: SK-MEL-28 melanoma
HOP-92 NSCLC = tested on: HOP-92 NSCLC
NCI-H522 lung = tested on: NCI-H522 lung
OVCAR-8 ovarian = tested on: OVCAR-8 ovarian
CCRF-CEM leukemia = tested on: CCRF-CEM leukemia
CAKI-1 renal = tested on: CAKI-1 renal
A549 NSCLC = tested on: A549 NSCLC
HCT-116 colon = tested on: HCT-116 colon
MALME-3M melanoma = tested on: MALME-3M melanoma
UACC-62 melanoma = tested on: UACC-62 melanoma
HOP-62 NSCLC = tested on: HOP-62 NSCLC
MCF7 breast = tested on: MCF7 breast
UACC-257 melanoma = tested on: UACC-257 melanoma
SK-OV-3 ovarian = tested on: SK-OV-3 ovarian
SW-620 colon = tested on: SW-620 colon
A498 renal = tested on: A498 renal
SNB-19 CNS = tested on: SNB-19 CNS
KM12 colon = tested on: KM12 colon
RPMI-8226 leukemia = tested on: RPMI-8226 leukemia
RXF 393 renal = tested on: RXF 393 renal
786-0 renal = tested on: 786-0 renal
OVCAR-4 ovarian = tested on: OVCAR-4 ovarian
SR leukemia = tested on: SR leukemia
HL-60(TB) leukemia = tested on: HL-60(TB) leukemia
NCI-H226 lung = tested on: NCI-H226 lung
HT29 colon = tested on: HT29 colon
MDA-N = tested on: MDA-N
SK-MEL-5 melanoma = tested on: SK-MEL-5 melanoma
UO-31 renal = tested on: UO-31 renal
NCI-H23 lung = tested on: NCI-H23 lung
SF-295 CNS = tested on: SF-295 CNS
T-47D breast = tested on: T-47D breast
OVCAR-5 ovarian = tested on: OVCAR-5 ovarian
TK-10 renal = tested on: TK-10 renal
MOLT-4 leukemia = tested on: MOLT-4 leukemia
OVCAR-3 ovarian = tested on: OVCAR-3 ovarian
BT-549 breast = tested on: BT-549 breast

CCN(CCCl)c1cc(CN(C)C)cc(NC(=O)c2cc(C(=O)Nc3cc(CN(C)C)cc(N(CC)CCCl)c3)n(C)n2)c1
TGI (IGROV1 ovarian): 380 nM | TGI (NCI-H460 lung): 400 nM | TGI (SK-MEL-2 melanoma): 3300 nM | TGI (U251 CNS): 387 nM | TGI (LOX IMVI melanoma): 260 nM | TGI (M14 melanoma): 2010 nM | TGI (ACHN renal): 749 nM | TGI (SF-539 CNS): 1630 nM | TGI (HCC-2998 colon): 2110 nM | TGI (HCT-15 colon): 10500 nM | TGI (NCI/ADR-RES ovarian): 32300 nM | TGI (MDA-MB-435): 1200 nM | TGI (K-562 leukemia): 1120 nM | TGI (SN12C renal): 2010 nM | TGI (SF-268 CNS): 1560 nM | TGI (MDA-MB-231 breast): 4060 nM | TGI (COLO 205 colon): 2050 nM | TGI (PC-3 prostate): 492 nM | TGI (SNB-75 CNS): 2550 nM | TGI (DU-145 prostate): 9190 nM | TGI (HS 578T breast): 1520 nM | TGI (SK-MEL-28 melanoma): 2810 nM | TGI (HOP-92 NSCLC): 3380 nM | TGI (NCI-H522 lung): 384 nM | TGI (OVCAR-8 ovarian): 1130 nM | TGI (CCRF-CEM leukemia): 299 nM | TGI (CAKI-1 renal): 2720 nM | TGI (A549 NSCLC): 1800 nM | TGI (HCT-116 colon): 1300 nM | TGI (MALME-3M melanoma): 2860 nM | TGI (UACC-62 melanoma): 2360 nM | TGI (HOP-62 NSCLC): 1210 nM | TGI (MCF7 breast): 1380 nM | TGI (UACC-257 melanoma): 2890 nM | TGI (SK-OV-3 ovarian): 3300 nM | TGI (SW-620 colon): 304 nM | TGI (A498 renal): 4410 nM | TGI (SNB-19 CNS): 1240 nM | TGI (KM12 colon): 703 nM | TGI (RPMI-8226 leukemia): > 100000 nM | TGI (RXF 393 renal): 2080 nM | TGI (786-0 renal): 261 nM | TGI (OVCAR-4 ovarian): 2800 nM | TGI (SR leukemia): > 100000 nM | TGI (HL-60(TB) leukemia): 4040 nM | TGI (NCI-H226 lung): 4160 nM | TGI (HT29 colon): 1020 nM | TGI (MDA-N): 2550 nM | TGI (SK-MEL-5 melanoma): 2280 nM | TGI (UO-31 renal): 7420 nM | TGI (NCI-H23 lung): 3040 nM | TGI (SF-295 CNS): 2240 nM | TGI (T-47D breast): 6430 nM | TGI (OVCAR-5 ovarian): 9360 nM | TGI (TK-10 renal): 6170 nM | TGI (MOLT-4 leukemia): 164 nM

CC(=O)Nc1cc(/C=C\C(=O)N2CC(CCl)c3c2cc(N)c2ccccc32)n(C)n1 (stereo not drawn)
TGI (IGROV1 ovarian): > 100000 nM | TGI (SK-MEL-2 melanoma): 41.6 nM and 47.9 nM | TGI (U251 CNS): 1230 nM and 3230 nM | GI50 (M14 melanoma): 13.8 nM | TGI (SF-539 CNS): 21.4 nM | TGI (HCC-2998 colon): 73.3 nM and 82.6 nM | GI50 (HCT-15 colon): 16.7 nM | TGI (HCT-15 colon): > 100000 nM | GI50 (NCI/ADR-RES ovarian): 103 nM | GI50 (MDA-MB-435): 13.1 nM | TGI (MDA-MB-435): 39.9 nM and 49.7 nM | TGI (K-562 leukemia): 20.3 nM | TGI (SF-268 CNS): 211 nM | TGI (OVCAR-3 ovarian): > 100000 nM | TGI (COLO 205 colon): 90.1 nM | TGI (PC-3 prostate): > 100000 nM | TGI (SNB-75 CNS): 14.1 nM and 45.9 nM | TGI (DU-145 prostate): > 100000 nM | TGI (SK-MEL-28 melanoma): 38.2 nM and 177 nM | TGI (HOP-92 NSCLC): > 100000 nM | TGI (CCRF-CEM leukemia): 12 nM | TGI (CAKI-1 renal): 22.3 nM | TGI (UACC-62 melanoma): 28.4 nM | TGI (MCF7 breast): > 100000 nM | TGI (UACC-257 melanoma): 39.4 nM | GI50 (SK-OV-3 ovarian): 31.1 nM | TGI (SW-620 colon): > 100000 nM | GI50 (BT-549 breast): 22.5 nM | TGI (A498 renal): 21.1 nM | GI50 (SNB-19 CNS): 27.7 nM | TGI (RPMI-8226 leukemia): 57.7 nM and 24.2 nM | TGI (RXF 393 renal): > 100000 nM | GI50 (OVCAR-4 ovarian): 21.6 nM | TGI (HL-60(TB) leukemia): 12.6 nM | GI50 (NCI-H226 lung): 17.3 nM | GI50 (MDA-N): 13.6 nM | TGI (MDA-N): 41.1 nM and 43.5 nM | TGI (UO-31 renal): 21.4 nM | TGI (NCI-H23 lung): 27.3 nM | GI50 (SF-295 CNS): 42.6 nM | TGI (TK-10 renal): > 100000 nM | TGI (MOLT-4 leukemia): 35.7 nM
